Test results taken from PMC11821258 (Molecules, 2025).

Assays:
[1] = system: human lung carcinoma A549; settings: A549, literature data ref 36; cited from earlier work
[2] = system: human colon cancer HCT116 cells; settings: HCT116, literature data ref 36; cited from earlier work
[3] = system: human prostate adenocarcinoma PC-3; settings: PC-3, literature data ref 36; cited from earlier work
[4] = system: human biphenotypic B myelomonocytic leukemia MV4-11; settings: MV4-11, literature data ref 36; cited from earlier work
[5] = system: human normal epithelial cells from the mammary gland (MCF-10A); settings: literature data ref 36; cited from earlier work
[6] = system: human breast cancer MCF-7; settings: MCF-7, literature data ref 36; cited from earlier work
[7] = system: caspase-3/7 in MV4-11 cells; assay: Caspase-3/7 activity determination; type: cell-based, human; settings: MV4-11, positive control
Method: The MV4-11 cells were seeded on 48-well plates to the final volume of 1 mL. […] After incubation, the cells were collected and centrifuged (5 min, 4 °C, 250× g). Cells were suspended in 50 µL of ice-cold lysis buffer (50 mM HEPES; 10% (w/v) sucrose; 150 mM NaCl; 2 mM EDTA; 1% (v/v) Triton X-100, pH 7.3; and HIIET, Wrocław, Poland) and incubated for 30 min at 4 °C. After the incubation, 40 µL of each sample was transferred to a white 96-well plate (Corning, USA) containing 160 µL of the reaction buffer (20 mM HEPES; 10% sucrose; 100 mM NaCl; 1 mM EDTA; 10 mM DTT; and 0.02% Trition X-100, pH 7.3) (HIIET, Wrocław, Poland) with a 9 µM AC-DEVD-AMC (Cayman Chemical, Ann Arbor, MI, USA) fluorogenic substrate (λex = 360 nm, λem = 460 nm). The correlation of the fluorescence increase with the caspase-3/7 level was continuously recorded at 37 °C for 120 min using Biotek Synergy H4 (Biokom, Warsaw, Poland). Compounds were tested in duplicates in single experiments, and each experiment was repeated at least three times independently. Results were normalized to the number of cells in each well and are reported as the mean relative caspase-3/7 activity compared to the untreated control sample ± SD.

MV4-11 cells = assay: Apoptosis determination via Annexin V and PI staining; type: cell-based, human; settings: MV4-11, 24 h
Method: Camptothecin at a concentration of 0.05 uM was used as a positive control. After incubation, the cells were collected and counted with a hemocytometer, and 1×10^5 cells were washed twice with PBS. APC-Annexin V (Becton Dickinson, Pharmingen, Franklin Lakes, NJ, USA) was dissolved to the concentration of […] in a binding buffer (10 mM HEPES/NaOH, pH 7.4; 150 mM NaCl; 5 mM KCl; 1 mM MgCl2; and 1.8 mM CaCl2) (HIIET, Wrocław, Poland), and the cells were suspended in 200 µL of this solution. After 15 min of the incubation in the dark at room temperature, 20 µL of propidium iodide (PI) solution (0.02 mg/mL) was added. Data acquisition was performed by conducting flow cytometry using a BD LSRFortessa cytometer (BD Bioscience, San Jose, CA, USA). The compounds were tested at least three times independently. Results were analyzed using Flowing software 2.5.1 (Turku, Finland). […] Double-negative cells were live cells, PI+/Annexin V+ were late apoptotic cells, PI-/Annexin V+ were early apoptotic cells, and PI+/Annexin V- were necrotic cells.

Compound | IC50 [1] | IC50 [2] | IC50 [3] | IC50 [4] | IC50 [5] | IC50 [6] | activity of caspase-3 in comparison to control cells [7] | induction of apoptosis (MV4-11 cells)
COc1cccc2c1C(=O)c1c(O)c3c(c(O)c1C2=O)C[C@@](O)(C(=O)CO)C[C@@H]3O[C@H]1C[C@H](N)[C@H](O)[C@H](C)O1 [C, doxorubicin] | 40 ± 12 nM | 118 ± 20 nM | 1270 ± 200 nM | 21 ± 8 nM | 114 ± 13 nM | 150 ± 15 nM | – | –
CC[C@@]1(O)C(=O)OCc2c1cc1n(c2=O)Cc2cc3ccccc3nc2-1 [camptothecin, reference compound] | – | – | – | – | – | – | 5 fold | induced apoptosis
